This is an account of results in patent US12077503B2, “Substituted cyclic amides and their use as herbicides” (FMC CORPORATION, priority 2015, dated 2024).

The structures appear in SMILES notation.

For series [1], the system named is velvetleaf (Abutilon theophrasti). In words: Test G Post-Emergence Protocol. The series is classed as in vivo. Particulars: Abutilon theophrasti, post-emergence, 312 h; for pest or weed control at 15.625 g/ha: 15.625 g ai/ha, evaluated after 13 days (100=total damage to plant; 0=no damage to plant), read-out: Velvetleaf damage rating; for pest or weed control at 62.5 g/ha: 62.5 g ai/ha, read-out: Velvetleaf damage rating (100=total damage to plant; 0=no damage to plant); for pest or weed control at 62.5 g/ha / pest or weed control at 250 g/ha: evaluated after 13 days; for pest or weed control at 250 g/ha: 250 g ai/ha, read-out: damage to plant, Velvetleaf (100=total damage to plant; 0=no damage to plant). In outline:
(§1)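 Eight days post-sowing, plants received a spray of test compound (acetone/water 50:50, 0.5% Tween 20) at 15.625, 62.5 or 250 g/ha. Glasshouse regime thereafter: 24/16 °C, 14 h light, 65% humidity. Assessment after 13 days on a 0–100 damage scale.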

For the next series, the system named is corn (Zea mays). In words: Test G Post-Emergence Protocol. The series is classed as in vivo. The settings on record: Zea mays, post-emergence, 312 h; for plant injury at 15.625 g/ha: 15.625 g ai/ha, evaluated after 13 days (100=total damage to plant; 0=no damage to plant), read-out: Corn damage rating; for plant injury at 62.5 g/ha: 62.5 g ai/ha, read-out: Corn damage rating (100=total damage to plant; 0=no damage to plant); for plant injury at 62.5 g/ha / plant injury at 250 g/ha: evaluated after 13 days; for plant injury at 250 g/ha: 250 g ai/ha, read-out: damage to plant, Corn (100=total damage to plant; 0=no damage to plant). In outline:
as §1

Series [2] deals with barnyardgrass (Echinochloa crus-galli). In words: Test G Post-Emergence Protocol. The format is in vivo. Particulars: Echinochloa crus-galli, post-emergence, 312 h; for pest or weed control at 15.625 g/ha: 15.625 g ai/ha, evaluated after 13 days (100=total damage to plant; 0=no damage to plant), read-out: Barnyardgrass damage rating; for pest or weed control at 62.5 g/ha: 62.5 g ai/ha, read-out: Barnyardgrass damage rating (100=total damage to plant; 0=no damage to plant); for pest or weed control at 62.5 g/ha / pest or weed control at 250 g/ha: evaluated after 13 days; for pest or weed control at 250 g/ha: 250 g ai/ha, read-out: damage to plant, Barnyardgrass (100=total damage to plant; 0=no damage to plant). Summed up: as §1

The test system of series [3] is ivy-leaved morning glory (Ipomoea hederacea). The experiment in a line: Test G Post-Emergence Protocol. The format is in vivo. Particulars: Ipomoea, post-emergence, 312 h; for pest or weed control at 15.625 g/ha: 15.625 g ai/ha, evaluated after 13 days (100=total damage to plant; 0=no damage to plant), read-out: Morningglory, Ivy-leaved damage rating; for pest or weed control at 62.5 g/ha: 62.5 g ai/ha, read-out: Morningglory, Ivy-leaved damage rating (100=total damage to plant; 0=no damage to plant); for pest or weed control at 62.5 g/ha / pest or weed control at 250 g/ha: evaluated after 13 days; for pest or weed control at 250 g/ha: 250 g ai/ha, read-out: damage to plant, Morningglory, Ivy-leaved (100=total damage to plant; 0=no damage to plant). In outline: as §1

The test system of series [4] is redroot pigweed (Amaranthus retroflexus). In words: Test G Post-Emergence Protocol. The settings on record: Amaranthus retroflexus, post-emergence, 312 h; for pest or weed control at 15.625 g/ha: 15.625 g ai/ha, evaluated after 13 days (100=total damage to plant; 0=no damage to plant), read-out: Pigweed, Redroot damage rating; for pest or weed control at 62.5 g/ha: 62.5 g ai/ha, read-out: Pigweed, Redroot damage rating (100=total damage to plant; 0=no damage to plant); for pest or weed control at 62.5 g/ha / pest or weed control at 250 g/ha: evaluated after 13 days; for pest or weed control at 250 g/ha: 250 g ai/ha, read-out: damage to plant, Pigweed, Redroot (100=total damage to plant; 0=no damage to plant). The format is in vivo. Summed up:
as §1

Series [5] concerns giant foxtail (Setaria faberi). The experiment in a line: Test G Post-Emergence Protocol. The format is in vivo. The settings on record: Setaria faberi, post-emergence, 312 h; for pest or weed control at 15.625 g/ha: 15.625 g ai/ha, evaluated after 13 days (100=total damage to plant; 0=no damage to plant), read-out: Foxtail, Giant damage rating; for pest or weed control at 62.5 g/ha: 62.5 g ai/ha, read-out: Foxtail, Giant damage rating (100=total damage to plant; 0=no damage to plant); for pest or weed control at 62.5 g/ha / pest or weed control at 250 g/ha: evaluated after 13 days; for pest or weed control at 250 g/ha: 250 g ai/ha, read-out: damage to plant, Foxtail, Giant (100=total damage to plant; 0=no damage to plant). In outline: as §1

Series [6] has as its system pigweed (Amaranthus retroflexus). The experiment in a line: Test A preemergence. The series is classed as in vivo. Particulars: Amaranthus retroflexus, pre-emergence, 240 h, 0 to 100 scale (0 no effect, 100 complete control), read-out: Plant response rating, Pigweed; for pest or weed control at 500 g/ha: 500 g ai/ha, preemergence; for pest or weed control at 125 g/ha: Preemergence, 125 g ai/ha.

Series [7] deals with barnyardgrass (Echinochloa crus-galli). The experiment in a line: Test A preemergence. Particulars: Echinochloa crus-galli, pre-emergence, 240 h, 0 to 100 scale (0 no effect, 100 complete control), read-out: Plant response rating, Barnyardgrass; for pest or weed control at 500 g/ha: 500 g ai/ha, preemergence; for pest or weed control at 125 g/ha: Preemergence, 125 g ai/ha. The series is classed as in vivo. Summed up: (§2)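 Preemergence directed soil spray on seeded pots, or postemergence application to plants 2–10 cm, one- to two-leaf. Solvent mixture non-phytotoxic, with surfactant. Scored ~10 d later, visually, 0–100 vs untreated.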

In series [8] the test system is giant foxtail (Setaria faberii). The experiment in a line: Test A preemergence. The series is classed as in vivo. Particulars: Setaria faberi, pre-emergence, 240 h, 0 to 100 scale (0 no effect, 100 complete control), read-out: Plant response rating, Foxtail, Giant; for pest or weed control at 500 g/ha: 500 g ai/ha, preemergence; for pest or weed control at 125 g/ha: Preemergence, 125 g ai/ha. Summed up: as §2

As for `CN1C[C@H](c2cccc(C(C)(C)C#N)c2)[C@@H](C(=O)Nc2cccc(F)c2F)C1=O` (racemic) [Compound 1497], in series [1], the pest or weed control at 15.625 g/ha is 0%, the pest or weed control at 62.5 g/ha was 0% and the pest or weed control at 250 g/ha was 20%. For the same molecule, in the series with corn (Zea mays), the plant injury at 15.625 g/ha was 10%, the plant injury at 62.5 g/ha stood at 0% and the plant injury at 250 g/ha was found to be 50%. Besides, in [2], the pest or weed control at 15.625 g/ha came to 20%, the pest or weed control at 62.5 g/ha turned out to be 60% and the pest or weed control at 250 g/ha turned out to be 60%. Also, in series [3], the pest or weed control at 15.625 g/ha turned out to be 0%, the pest or weed control at 62.5 g/ha amounted to 0% and the pest or weed control at 250 g/ha was 10%. In addition, in series [4], the pest or weed control at 15.625 g/ha turned out to be 0%, the pest or weed control at 62.5 g/ha is 0% and the pest or weed control at 250 g/ha was found to be 0%. In addition, in [5], the pest or weed control at 15.625 g/ha was 30%, the pest or weed control at 62.5 g/ha was found to be 60% and the pest or weed control at 250 g/ha was determined as 60%.
On to `CN1C[C@@H](c2ccc(C(F)(F)F)cc2)[C@H](C(=O)Nc2ccnc(Cl)c2Cl)C1=O` (racemic) [Compound 1503], for which, in [1], the pest or weed control at 15.625 g/ha came out at 0%, the pest or weed control at 62.5 g/ha was determined as 0% and the pest or weed control at 250 g/ha was determined as 0%. In addition, in the series on corn (Zea mays), the plant injury at 15.625 g/ha is 0%, the plant injury at 62.5 g/ha is 10% and the plant injury at 250 g/ha was found to be 10%. Also, in series [2], the pest or weed control at 15.625 g/ha turned out to be 0%, the pest or weed control at 62.5 g/ha was found to be 10% and the pest or weed control at 250 g/ha is 10%. Also, in series [3], the pest or weed control at 15.625 g/ha came out at 0%, the pest or weed control at 62.5 g/ha was found to be 0% and the pest or weed control at 250 g/ha turned out to be 0%. For the same molecule, in [4], the pest or weed control at 15.625 g/ha worked out at 0%, the pest or weed control at 62.5 g/ha turned out to be 0% and the pest or weed control at 250 g/ha stood at 0%. In [5], the pest or weed control at 15.625 g/ha turned out to be 0%, the pest or weed control at 62.5 g/ha is 20% and the pest or weed control at 250 g/ha was 40%.
With `CN1C[C@@H](c2ccc(C(F)(F)F)cc2)[C@H](C(=O)Nc2ncc(C(F)(F)F)s2)C1=O` (racemic) [Compound 1504], the pest or weed control at 15.625 g/ha in [1], in series [2], in [3], in [4] and in [5] was 0% each time. Moreover, the pest or weed control at 62.5 g/ha in series [1], in series [2], in [3], in series [4] and in series [5] was 0% each time. In addition, the pest or weed control at 250 g/ha in series [1], in series [2], in series [3], in series [4] and in series [5] was 0% in each case. Also, the plant injury at 15.625 g/ha in the series with corn (Zea mays) amounted to 0%. In addition, in the series on corn (Zea mays), the plant injury at 62.5 g/ha was 0%. Besides, the plant injury at 250 g/ha with corn (Zea mays) is 0%.
In the case of `O=C1NCC(c2ccccc2)C1C(=O)Nc1cc(F)ccc1F` (centres unmarked) [Compound 1359], the melting point – broadly, the temperature, or range, at which the solid turns liquid – was 147 to 149 °C. Besides, in series [6], the pest or weed control at 500 g/ha turned out to be 0% and the pest or weed control at 125 g/ha was found to be 0%. Moreover, in [7], the pest or weed control at 500 g/ha is 0% and the pest or weed control at 125 g/ha stood at 0%. Besides, in [8], the pest or weed control at 500 g/ha is 0% and the pest or weed control at 125 g/ha came out at 0%.
`O=C1NCC(c2ccccc2)C1C(=O)Nc1ccc(C(F)(F)F)cc1` (centres unmarked) [Compound 1362] yielded a melting point of 221 to 223 °C. In addition, in series [6], the pest or weed control at 500 g/ha was 0% and the pest or weed control at 125 g/ha was 0%. Further, in [7], the pest or weed control at 500 g/ha came to 0% and the pest or weed control at 125 g/ha was 0%. Besides, in series [8], the pest or weed control at 500 g/ha was determined as 0% and the pest or weed control at 125 g/ha is 0%.
